Earlier results, collected in patent publication US20120277309A1, “METHODS OF CONTROLLING VENOUS IRRITATION ASSOCIATED WITH THE TREATMENT OF A CARDIAC DISORDER” (BAXTER HEALTHCARE S.A., priority 2011, published 2012).
Where a name gives a salt, the structure may show the parent alone.

Key:
[1] = packaging insert, Baxter; incidence increases with concentration
beta-adrenergic = details: disclosed in WO 88/01614

SMILES	Venous irritation in patients on infusion [1]	Potency as a beta-adrenergic-blocking agent relative to an equivalent amount of the racemic mixture (beta-adrenergic)
COC(=O)CCc1ccc(OCC(O)CNC(C)C)cc1 (racemic) [R,S-esmolol hydrochloride, methyl-3-[4-(2-hydroxy-3-isopropylamino)propoxy]phenylpropionate hydrochloride]	A significant number of patients experience venous irritation at the infusion site	–
COC(=O)CCc1ccc(OC[C@@H](O)CNC(C)C)cc1.Cl (single isomer, unassigned) [S-isomer of esmolol hydrochloride]	–	about twice
